# Measurements reported in article PMC11864979, “First-in-class ultralong-target-residence-time p38α inhibitors as a mitosis-targeted therapy for colorectal cancer” (Nature Cancer, 2025).
# Where two headings read alike, the source gives them in different places.
# Columns and labels:
# Test in all cases: selectivity profiling in a panel of 340 wild-type kinases (Reaction Biology Europe)
# Format in all cases: binding
# 340 wild-type kinases [1] = molecular target: T1, 340 wild-type kinases (Homo sapiens, UniProt P14616)
# T1 construct: purchased Reaction Biology Europe
# 340 wild-type kinases [2] = molecular target: T2, 340 wild-type kinases (Homo sapiens, UniProt Q15746)
# T2 construct: purchased Reaction Biology Europe
# 340 wild-type kinases [3] = molecular target: T3, 340 wild-type kinases (Homo sapiens, UniProt P22607)
# T3 construct: purchased Reaction Biology Europe
# 340 wild-type kinases [4] = molecular target: T4, 340 wild-type kinases (Homo sapiens, UniProt Q12866)
# T4 construct: purchased Reaction Biology Europe
# T4 sequence (Q12866 21-999): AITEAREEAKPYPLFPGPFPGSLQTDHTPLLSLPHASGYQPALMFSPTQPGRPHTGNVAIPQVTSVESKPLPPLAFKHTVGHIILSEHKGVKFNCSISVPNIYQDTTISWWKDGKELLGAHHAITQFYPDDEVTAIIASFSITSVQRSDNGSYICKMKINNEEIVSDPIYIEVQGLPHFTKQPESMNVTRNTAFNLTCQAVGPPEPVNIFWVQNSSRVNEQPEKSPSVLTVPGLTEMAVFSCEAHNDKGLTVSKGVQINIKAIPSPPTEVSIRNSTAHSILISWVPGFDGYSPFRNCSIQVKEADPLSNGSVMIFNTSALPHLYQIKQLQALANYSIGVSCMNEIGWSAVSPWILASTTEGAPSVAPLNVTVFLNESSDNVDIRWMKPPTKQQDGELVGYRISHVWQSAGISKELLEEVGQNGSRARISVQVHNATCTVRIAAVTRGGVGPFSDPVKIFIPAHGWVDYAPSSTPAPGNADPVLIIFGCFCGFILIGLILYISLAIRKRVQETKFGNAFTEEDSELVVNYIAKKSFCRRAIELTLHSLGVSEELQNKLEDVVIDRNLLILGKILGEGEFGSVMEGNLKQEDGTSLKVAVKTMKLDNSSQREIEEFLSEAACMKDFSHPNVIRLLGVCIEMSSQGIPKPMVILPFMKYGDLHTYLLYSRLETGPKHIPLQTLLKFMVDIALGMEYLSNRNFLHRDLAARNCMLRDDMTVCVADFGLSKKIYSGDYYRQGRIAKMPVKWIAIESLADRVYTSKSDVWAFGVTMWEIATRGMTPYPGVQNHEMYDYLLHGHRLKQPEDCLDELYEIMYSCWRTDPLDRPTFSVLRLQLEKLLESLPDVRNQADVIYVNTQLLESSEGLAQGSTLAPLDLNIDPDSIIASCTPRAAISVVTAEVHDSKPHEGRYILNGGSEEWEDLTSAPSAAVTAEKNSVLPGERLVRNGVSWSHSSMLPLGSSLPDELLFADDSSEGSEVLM
# 340 wild-type kinases [5] = molecular target: T5, 340 wild-type kinases (Homo sapiens, UniProt Q13188)
# T5 construct: purchased Reaction Biology Europe
# T5 sequence (Q13188 1-491): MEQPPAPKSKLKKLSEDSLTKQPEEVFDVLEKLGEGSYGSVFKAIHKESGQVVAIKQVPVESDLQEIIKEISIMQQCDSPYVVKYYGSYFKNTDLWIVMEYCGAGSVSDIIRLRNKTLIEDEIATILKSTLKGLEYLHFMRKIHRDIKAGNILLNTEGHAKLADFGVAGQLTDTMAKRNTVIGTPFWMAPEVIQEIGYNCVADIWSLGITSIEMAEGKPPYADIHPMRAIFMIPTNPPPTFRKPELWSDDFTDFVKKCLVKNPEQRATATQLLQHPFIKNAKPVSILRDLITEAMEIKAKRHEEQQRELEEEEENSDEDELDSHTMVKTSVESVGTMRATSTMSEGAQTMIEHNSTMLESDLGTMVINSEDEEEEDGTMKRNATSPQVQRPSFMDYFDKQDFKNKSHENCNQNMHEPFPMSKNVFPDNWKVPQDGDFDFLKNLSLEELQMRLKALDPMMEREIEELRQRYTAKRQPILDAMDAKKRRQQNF
# 340 wild-type kinases [6] = molecular target: T6, 340 wild-type kinases (Homo sapiens, UniProt P05771)
# T6 construct: purchased Reaction Biology Europe
# 340 wild-type kinases [7] = molecular target: T7, 340 wild-type kinases (Homo sapiens, UniProt Q9HBH9)
# T7 construct: purchased Reaction Biology Europe
# 340 wild-type kinases [8] = molecular target: T8, 340 wild-type kinases (Homo sapiens, UniProt P42345)
# T8 construct: purchased Reaction Biology Europe
# T2 sequence (Q15746 whole entry): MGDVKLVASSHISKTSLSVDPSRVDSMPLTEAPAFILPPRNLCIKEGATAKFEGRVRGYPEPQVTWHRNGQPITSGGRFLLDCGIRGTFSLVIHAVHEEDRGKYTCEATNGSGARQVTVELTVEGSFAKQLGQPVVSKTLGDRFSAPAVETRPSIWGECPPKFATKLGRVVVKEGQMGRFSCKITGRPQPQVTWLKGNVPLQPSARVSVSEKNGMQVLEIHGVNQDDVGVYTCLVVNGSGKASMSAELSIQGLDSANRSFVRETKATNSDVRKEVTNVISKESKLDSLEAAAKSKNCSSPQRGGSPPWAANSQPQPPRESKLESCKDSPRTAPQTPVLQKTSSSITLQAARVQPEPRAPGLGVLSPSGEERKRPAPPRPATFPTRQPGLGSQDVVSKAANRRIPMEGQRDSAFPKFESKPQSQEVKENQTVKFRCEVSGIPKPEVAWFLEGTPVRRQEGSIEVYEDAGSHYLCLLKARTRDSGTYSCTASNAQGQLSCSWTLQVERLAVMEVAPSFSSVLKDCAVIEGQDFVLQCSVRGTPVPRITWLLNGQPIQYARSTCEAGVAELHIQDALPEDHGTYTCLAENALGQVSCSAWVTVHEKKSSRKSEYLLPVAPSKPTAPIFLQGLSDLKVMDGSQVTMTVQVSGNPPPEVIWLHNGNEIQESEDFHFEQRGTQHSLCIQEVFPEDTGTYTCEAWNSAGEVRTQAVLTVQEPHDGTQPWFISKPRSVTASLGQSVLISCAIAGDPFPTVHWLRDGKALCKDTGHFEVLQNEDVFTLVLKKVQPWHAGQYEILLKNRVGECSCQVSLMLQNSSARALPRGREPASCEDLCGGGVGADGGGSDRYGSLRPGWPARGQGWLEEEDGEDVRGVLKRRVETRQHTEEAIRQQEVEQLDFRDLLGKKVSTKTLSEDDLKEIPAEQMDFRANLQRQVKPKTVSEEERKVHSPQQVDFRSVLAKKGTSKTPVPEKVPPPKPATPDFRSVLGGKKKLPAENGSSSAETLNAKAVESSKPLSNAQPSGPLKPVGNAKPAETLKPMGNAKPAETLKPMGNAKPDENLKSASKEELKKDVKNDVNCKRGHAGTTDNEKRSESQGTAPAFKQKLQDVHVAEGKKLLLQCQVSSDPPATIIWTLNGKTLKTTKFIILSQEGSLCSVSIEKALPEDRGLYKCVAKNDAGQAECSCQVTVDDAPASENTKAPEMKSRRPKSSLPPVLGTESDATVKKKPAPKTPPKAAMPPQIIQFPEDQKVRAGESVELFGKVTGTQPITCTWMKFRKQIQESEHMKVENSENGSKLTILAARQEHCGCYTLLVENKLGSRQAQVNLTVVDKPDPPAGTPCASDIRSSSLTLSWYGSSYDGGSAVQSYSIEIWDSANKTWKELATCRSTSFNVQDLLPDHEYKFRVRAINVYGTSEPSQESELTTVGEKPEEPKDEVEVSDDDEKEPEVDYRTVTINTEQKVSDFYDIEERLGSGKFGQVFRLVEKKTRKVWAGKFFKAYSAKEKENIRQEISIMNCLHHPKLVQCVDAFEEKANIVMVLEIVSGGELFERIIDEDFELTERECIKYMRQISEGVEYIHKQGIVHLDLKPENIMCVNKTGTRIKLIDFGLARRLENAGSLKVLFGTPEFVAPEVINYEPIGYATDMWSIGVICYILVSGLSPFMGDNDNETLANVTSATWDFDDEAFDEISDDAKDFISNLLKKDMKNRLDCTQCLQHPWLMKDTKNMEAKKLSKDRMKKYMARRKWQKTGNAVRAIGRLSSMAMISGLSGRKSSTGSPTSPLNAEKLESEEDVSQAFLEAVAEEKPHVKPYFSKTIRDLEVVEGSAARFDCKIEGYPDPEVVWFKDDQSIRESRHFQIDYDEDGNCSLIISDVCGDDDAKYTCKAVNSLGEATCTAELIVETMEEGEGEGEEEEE
# T1 sequence (P14616 27-1297): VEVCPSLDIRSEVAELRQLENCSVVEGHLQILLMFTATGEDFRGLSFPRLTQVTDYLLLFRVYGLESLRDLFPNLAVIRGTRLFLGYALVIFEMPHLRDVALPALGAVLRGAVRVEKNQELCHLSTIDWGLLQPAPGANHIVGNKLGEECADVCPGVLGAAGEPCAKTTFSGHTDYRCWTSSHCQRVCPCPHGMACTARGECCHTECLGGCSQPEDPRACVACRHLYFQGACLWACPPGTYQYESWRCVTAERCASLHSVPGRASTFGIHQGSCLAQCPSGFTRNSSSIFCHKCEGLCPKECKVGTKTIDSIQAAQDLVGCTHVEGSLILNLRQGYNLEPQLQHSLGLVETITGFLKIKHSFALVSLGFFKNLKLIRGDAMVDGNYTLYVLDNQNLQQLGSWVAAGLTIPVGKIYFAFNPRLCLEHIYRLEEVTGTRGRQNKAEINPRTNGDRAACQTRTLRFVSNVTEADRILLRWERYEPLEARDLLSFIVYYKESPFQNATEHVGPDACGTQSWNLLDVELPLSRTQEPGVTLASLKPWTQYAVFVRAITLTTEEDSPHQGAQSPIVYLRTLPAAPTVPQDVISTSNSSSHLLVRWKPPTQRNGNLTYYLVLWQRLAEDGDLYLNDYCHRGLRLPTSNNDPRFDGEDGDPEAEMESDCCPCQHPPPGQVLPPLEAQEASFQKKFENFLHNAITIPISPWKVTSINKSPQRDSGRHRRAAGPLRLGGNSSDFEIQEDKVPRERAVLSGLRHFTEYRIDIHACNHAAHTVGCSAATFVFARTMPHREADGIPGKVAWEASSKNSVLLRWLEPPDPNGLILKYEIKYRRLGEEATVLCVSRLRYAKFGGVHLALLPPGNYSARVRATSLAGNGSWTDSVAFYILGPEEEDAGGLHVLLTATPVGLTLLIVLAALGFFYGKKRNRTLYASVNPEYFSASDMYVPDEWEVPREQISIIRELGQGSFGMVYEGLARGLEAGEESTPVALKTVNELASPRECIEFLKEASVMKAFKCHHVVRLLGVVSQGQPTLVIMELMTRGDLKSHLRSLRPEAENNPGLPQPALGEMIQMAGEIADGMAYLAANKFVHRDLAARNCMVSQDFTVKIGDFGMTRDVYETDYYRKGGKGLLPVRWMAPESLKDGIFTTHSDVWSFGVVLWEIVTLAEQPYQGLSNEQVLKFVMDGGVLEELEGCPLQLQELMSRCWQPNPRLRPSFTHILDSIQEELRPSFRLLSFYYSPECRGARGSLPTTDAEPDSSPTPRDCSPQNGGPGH
# T3 sequence (P22607 23-806): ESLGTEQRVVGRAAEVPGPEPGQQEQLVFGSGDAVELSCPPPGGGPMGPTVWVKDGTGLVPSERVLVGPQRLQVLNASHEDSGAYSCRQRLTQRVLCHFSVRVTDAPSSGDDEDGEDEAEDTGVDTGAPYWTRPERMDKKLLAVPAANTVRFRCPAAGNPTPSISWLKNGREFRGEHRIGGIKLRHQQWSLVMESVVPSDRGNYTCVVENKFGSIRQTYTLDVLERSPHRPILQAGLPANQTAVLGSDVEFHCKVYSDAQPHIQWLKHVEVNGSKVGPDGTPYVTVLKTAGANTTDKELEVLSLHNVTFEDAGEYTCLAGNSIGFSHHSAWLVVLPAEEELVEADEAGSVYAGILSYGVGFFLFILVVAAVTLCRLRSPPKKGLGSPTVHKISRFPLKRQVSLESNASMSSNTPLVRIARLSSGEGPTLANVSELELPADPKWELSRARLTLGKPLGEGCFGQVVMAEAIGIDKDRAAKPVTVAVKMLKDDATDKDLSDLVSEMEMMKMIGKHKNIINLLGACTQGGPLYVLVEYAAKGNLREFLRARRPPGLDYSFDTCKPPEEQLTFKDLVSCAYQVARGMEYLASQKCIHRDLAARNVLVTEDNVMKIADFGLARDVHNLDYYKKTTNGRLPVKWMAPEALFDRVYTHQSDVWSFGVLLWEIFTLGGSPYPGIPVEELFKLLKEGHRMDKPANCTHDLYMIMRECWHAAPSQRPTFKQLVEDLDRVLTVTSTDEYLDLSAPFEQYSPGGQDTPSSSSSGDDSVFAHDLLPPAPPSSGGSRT
# T7 sequence (Q9HBH9 whole entry): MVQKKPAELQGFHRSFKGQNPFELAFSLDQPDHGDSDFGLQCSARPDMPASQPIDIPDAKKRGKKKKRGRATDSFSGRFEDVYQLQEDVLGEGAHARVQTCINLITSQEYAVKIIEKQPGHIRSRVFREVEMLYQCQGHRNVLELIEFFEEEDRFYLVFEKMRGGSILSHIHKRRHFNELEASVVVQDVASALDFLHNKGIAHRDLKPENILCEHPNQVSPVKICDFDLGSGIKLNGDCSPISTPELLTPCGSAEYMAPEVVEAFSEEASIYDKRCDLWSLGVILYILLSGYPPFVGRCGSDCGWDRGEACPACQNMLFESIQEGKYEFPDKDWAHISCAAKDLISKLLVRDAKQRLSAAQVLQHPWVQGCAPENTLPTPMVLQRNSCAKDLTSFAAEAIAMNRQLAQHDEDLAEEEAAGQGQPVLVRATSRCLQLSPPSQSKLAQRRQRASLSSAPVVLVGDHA
smiles,measurement,setting,value
CNC(=O)c1ccc2c(c1)C(=O)c1ccc(Nc3ccc(F)c(NC(=O)C4CC4)c3)cc1CC2 [Compound 2015],remaining activity at 0.2 µM,"340 wild-type kinases [1]; 0.2 µM 2015, read-out: INSRR residual activity",96%
same,remaining activity at 1 µM,"340 wild-type kinases [1]; 1 µM 2015, read-out: INSRR residual activity",97.4%
same,remaining activity at 0.2 µM,"340 wild-type kinases [1]; INSRR, 0.2 µM, read-out: residual activity",96%
same,remaining activity at 1 µM,"340 wild-type kinases [1]; INSRR, 1 µM, read-out: residual activity",97.4%
same,remaining activity at 0.2 µM,"340 wild-type kinases [2]; 0.2 µM 2015, read-out: MYLK residual activity",109%
same,remaining activity at 1 µM,"340 wild-type kinases [2]; 1 µM 2015, read-out: MYLK residual activity",97.7%
same,remaining activity at 0.2 µM,"340 wild-type kinases [2]; MYLK, 0.2 µM, read-out: residual activity",109%
same,remaining activity at 1 µM,"340 wild-type kinases [2]; MYLK, 1 µM, read-out: residual activity",97.7%
same,remaining activity at 0.2 µM,"340 wild-type kinases [3]; 0.2 µM 2015, read-out: FGFR3 residual activity",109%
same,remaining activity at 1 µM,"340 wild-type kinases [3]; 1 µM 2015, read-out: FGFR3 residual activity",97.1%
same,remaining activity at 0.2 µM,"340 wild-type kinases [3]; FGFR3, 0.2 µM, read-out: residual activity",109%
same,remaining activity at 1 µM,"340 wild-type kinases [3]; FGFR3, 1 µM, read-out: residual activity",97.1%
same,remaining activity at 0.2 µM,"340 wild-type kinases [4]; 0.2 µM 2015, read-out: MERTK residual activity",88.3%
same,remaining activity at 1 µM,"340 wild-type kinases [4]; 1 µM 2015, read-out: MERTK residual activity",97%
same,remaining activity at 0.2 µM,"340 wild-type kinases [4]; MERTK, 0.2 µM, read-out: residual activity",88.3%
same,remaining activity at 1 µM,"340 wild-type kinases [4]; MERTK, 1 µM, read-out: residual activity",97%
same,remaining activity at 0.2 µM,"340 wild-type kinases [5]; 0.2 µM 2015, read-out: MST2 residual activity",115%
same,remaining activity at 1 µM,"340 wild-type kinases [5]; 1 µM 2015, read-out: MST2 residual activity",106%
same,remaining activity at 0.2 µM,"340 wild-type kinases [5]; MST2, 0.2 µM, read-out: residual activity",115%
same,remaining activity at 1 µM,"340 wild-type kinases [5]; MST2, 1 µM, read-out: residual activity",106%
same,remaining activity at 0.2 µM,"340 wild-type kinases [6]; 0.2 µM 2015, read-out: PKCbeta1 residual activity",109%
same,remaining activity at 1 µM,"340 wild-type kinases [6]; 1 µM 2015, read-out: PKCbeta1 residual activity",100%
same,remaining activity at 0.2 µM,"340 wild-type kinases [6]; PKCbeta1, 0.2 µM, read-out: residual activity",109%
same,remaining activity at 1 µM,"340 wild-type kinases [6]; PKCbeta1, 1 µM, read-out: residual activity",100%
same,remaining activity at 0.2 µM,"340 wild-type kinases [6]; PKCbeta2, 0.2 µM, read-out: residual activity",103%
same,remaining activity at 1 µM,"340 wild-type kinases [6]; PKCbeta2, 1 µM, read-out: residual activity",109%
same,remaining activity at 0.2 µM,"340 wild-type kinases [7]; 0.2 µM 2015, read-out: MKNK2 residual activity",105%
same,remaining activity at 1 µM,"340 wild-type kinases [7]; 1 µM 2015, read-out: MKNK2 residual activity",102%
same,remaining activity at 0.2 µM,"340 wild-type kinases [7]; MKNK2, 0.2 µM, read-out: residual activity",105%
same,remaining activity at 1 µM,"340 wild-type kinases [7]; MKNK2, 1 µM, read-out: residual activity",102%
same,remaining activity at 0.2 µM,"340 wild-type kinases [8]; 0.2 µM 2015, read-out: MTOR residual activity",97.9%
same,remaining activity at 1 µM,"340 wild-type kinases [8]; 1 µM 2015, read-out: MTOR residual activity",101%
same,remaining activity at 0.2 µM,"340 wild-type kinases [8]; MTOR, 0.2 µM, read-out: residual activity",97.9%
same,remaining activity at 1 µM,"340 wild-type kinases [8]; MTOR, 1 µM, read-out: residual activity",101%
